IC50 data for 19 compounds are collected here from patent US20130345215A1, “PYRAZOLOPYRIMIDONE AND PYRAZOLOPYRIDONE INHIBITORS OF TANKYRASE” (Genentech, Inc., priority 2012, published 2013).

Molecules are shown by their SMILES.

The test system of this test is Wnt stimulated TCF transcriptional activity, HEK293-TS 112 TCF reporter cell line. Nature of the test: Tankyrase 1 Assay (Example 119): Wnt3A-stimulated TOPbrite TCF luciferase reporter. To be noted: Compounds I-59 to I-144, procedure in Example 119 (0.5 ug/mL Wnt3A, 16 hours); read-out: TNKS1 (IC50). The format is cell-based. How it is done:
Inhibition of the Wnt stimulated TCF transcriptional activity by tankyrase inhibitors was determined utilizing a HEK293-TS 112 TCF reporter cell line. A Wnt-responsive luciferase reporter named TOPbrite was constructed by cloning the enhancer element of Super8xTOPFlash containing eight TCF/LEF binding sites into the pGL4.28 vector (Promega) upstream of the minimal promoter element, and selecting for hygromycin B resistance (50 μg/ml). Cells were seeded into 384-well plates in the presence of 0.5 ug/mL of Wnt3A at a density of 20,000 cells per well in 25 ul of F:12 DMEM media supplemented with 10% FBS and 2 mM Glutamax. Cells seeded without the addition of Wnt3A were used as background signal. Compounds of various concentrations were added to cells and incubated at 37 degrees with 5% CO2 for 16 hours. The assay was terminated with the addition of Promega Dual Glo kit per manufacturer's instructions. A ratio of TOPbrite Firefly Luciferase and SV40 Renillla Luciferase was calculated and the background from the neutral wells was subtracted yielding the final normalized measurement of TCF transcriptional activity. Compound IC50s were determined by four-parameter curve fitting using GeneData software.
Turning to `COCCOc1cc(F)c(N2CCN(c3nc4c(cnn4CC(C)O)c(=O)[nH]3)CC2)c(F)c1` (stereo not shown) [Compound I-126, 6-[4-[2 6-difluoro-4-(2-methoxyethoxy)phenyl]piperazin-1-yl]-1-(2-hydroxypropyl)-5H-pyrazolo[3 4-d]pyrimidin-4-one], the IC50 turned out to be 220 nM.
Regarding `Cn1ncc2c(=O)[nH]c(N3CCC(C)(c4ccn(CC(C)(C)O)n4)CC3)nc21` [Compound I-127, 6-[4-[1-(2-hydroxy-2-methyl-propyl)pyrazol-3-yl)-4-methyl-1-piperidyl]-1-methyl-5H-pyrazolo[3 4-d]pyrimidin-4-one], the IC50 worked out at 223 nM.
As for `COCCOc1cc(F)c(N2CCN(c3nc4c(cnn4C4CCS(=O)(=O)CC4)c(=O)[nH]3)CC2)c(F)c1` [Compound I-128, 6-[4-[2 6-difluoro-4-(2-methoxyethoxy)phenyl]piperazin-1-yl]-1-(1 1-dioxothian-4-yl)-5H-pyrazolo[3 4-d]pyrimidin-4-one], the IC50 was 268 nM.
For `Cn1ncc2c(=O)[nH]c(N3CCC(C(=O)N4CCCC4)CC3)nc21` [Compound I-129, 1-methyl-6-[4-(pyrrolidine-1-carbonyl)-1-piperidyl)-5H-pyrazolo[3 4-d]pyrimidin-4-one], the IC50 turned out to be 274 nM.
As to `Cn1ncc2c(=O)[nH]c(N3CCN(C4CCOCC4)CC3)nc21` [Compound I-130, 1-methyl-6-(4-tetrahydropyran-4-ylpiperazin-1-yl)-5H-pyrazolo[3 4-d]pyrimidin-4-one], the half-inhibitory concentration (IC50) was found to be 315 nM.
The same measure for `Cn1ncc2c(=O)[nH]c(N3CCN(C4CCN(C(=O)OC(C)(C)C)CC4)CC3)nc21` [Compound I-131, tert-butyl 4-[4-(1-methyl-4-oxo-5H-pyrazolo[3 4-d]pyrimidin-6-yl)piperazin-1-yl]piperidine-1-carboxylate]: 317 nM; for `Cn1nccc1CN1CCN(c2nc3c(cnn3C)c(=O)[nH]2)CC1` [Compound I-132, 1-methyl-6-[4-((2-methylpyrazol-3-yl)methyl]piperazin-1-yl]-5H-pyrazolo[3 4-d]pyrimidin-4-one]: 329 nM.
The value for `Cn1ncc2c(=O)[nH]c(N3CCC(Cc4ncccn4)C3)nc21` (stereo not shown) [Compound I-133, 1-methyl-6-[3-(pyrimidin-2-ylmethyl)pyrrolidin-1-yl]-5H-pyrazolo[3 4-d]pyrimidin-4-one] was 337 nM.
Turning to `Cn1cc(CN2CCN(c3nc4c(cnn4C)c(=O)[nH]3)CC2)cn1` [Compound I-134, 1-methyl-6-[4-[(1-methylpyrazol-4-yl)methyl]piperazin-1-yl]-5H-pyrazolo[3 4-d]pyrimidin-4-one], the 50% inhibitory concentration (IC50) is 342 nM.
For the compound `Cn1ncc2c(=O)[nH]c(N3CCC(S(=O)(=O)CC4CCCCC4)CC3)nc21` [Compound I-135, 6-[4-(cyclohexylmethylsulfonyl)-1-piperidyl]-1-methyl-5H-pyrazolo[3 4-d]pyrimidin-4-one], the IC50 is 406 nM.
As for `COCCO[C@H]1CC[C@@H](N2CCN(c3nc4c(cnn4C)c(=O)[nH]3)CC2)CC1` [Compound I-136, 6-[4-[4-(2-methoxyethoxy)cyclohexyl]piperazin-1-yl]-1-methyl-5H-pyrazolo[3 4-d]pyrimidin-4-one], the IC50 was 468 nM.
As to `Cn1ncc2c(=O)[nH]c(N3CCC(Cc4cccnc4)C3)nc21` (stereo not shown) [Compound I-137, 1-methyl-6-[3-(3-pyridylmethyl)pyrrolidin-1-yl]-5H-pyrazolo[3 4-d]pyrimidin-4-one], the IC50 was found to be 490 nM.
The value for `Cn1ncc2c(=O)[nH]c(N3CCC(Cc4ccncc4)C3)nc21` (stereo not shown) [Compound I-138, 1-methyl-6-[3-(4-pyridylmethyl)pyrrolidin-1-yl]-5H-pyrazolo[3 4-d]pyrimidin-4-one] was 536 nM; that for `Cn1ncc2c(=O)[nH]c(-c3ccc(S(C)(=O)=O)cn3)nc21` [Compound I-139, 1-methyl-6-(5-methylsulfonyl-2-pyridyl)-5H-pyrazolo[3 4-d]pyrimidin-4-one] was 547 nM.
With `Cc1cc(CN2CCN(c3nc4c(cnn4C)c(=O)[nH]3)CC2)no1` [Compound I-140, 1-methyl-6-[4-[(5-methylisoxazol-3-yl)methyl]piperazin-1-yl]-5H-pyrazolo[3 4-d]pyrimidin-4-one], the IC50 was 566 nM.
The same measure for `Cn1ncc2c(=O)[nH]c(N3CCC(S(C)(=O)=O)CC3)nc21` [Compound I-141, 1-methyl-6-(4-methylsulfonyl-1-piperidyl)-5H-pyrazolo[3 4-d]pyrimidin-4-one]: 652 nM; for `Cn1ncc2c(=O)[nH]c(N3CCN(S(C)(=O)=O)CC3)nc21` [Compound I-142, 1-methyl-6-(4-methylsulfonylpiperazin-1-yl)-5H-pyrazolo[3 4-d]pyrimidin-4-one]: 740 nM.
Consider `COCCOc1cc(F)c(N2CCN(c3nc4c(cnn4CC(C)(C)O)c(=O)[nH]3)CC2)c(F)c1` [Compound I-143, 6-[4-[2 6-difluoro-4-(2-methoxyethoxy)phenyl]piperazin-1-yl]-1-(2-hydroxy-2-methyl-propyl)-5H-pyrazolo[3 4-d]pyrimidin-4-one], for which the IC50 was found to be 795 nM.
As for `Cn1ncc2c(=O)[nH]c(N3CCN(C4COC4)CC3)nc21` [Compound I-144, 1-methyl-6-[4-(oxetan-3-yl)piperazin-1-yl]-5H-pyrazolo[3 4-d]pyrimidin-4-one], the IC50 amounted to 830 nM.
